Assay results taken from patent US12479840B2, “HMG-CoA reductase degradation inducing compound” (Uppthera, priority 2020, dated 2025).

Molecular target: T1, HMG-CoA reductase (Homo sapiens, UniProt P04035)
T1 construct: endogenous in cells; host or cells: HepG2 (Korea Cell Line Bank)
T1 sequence (P04035 1-888): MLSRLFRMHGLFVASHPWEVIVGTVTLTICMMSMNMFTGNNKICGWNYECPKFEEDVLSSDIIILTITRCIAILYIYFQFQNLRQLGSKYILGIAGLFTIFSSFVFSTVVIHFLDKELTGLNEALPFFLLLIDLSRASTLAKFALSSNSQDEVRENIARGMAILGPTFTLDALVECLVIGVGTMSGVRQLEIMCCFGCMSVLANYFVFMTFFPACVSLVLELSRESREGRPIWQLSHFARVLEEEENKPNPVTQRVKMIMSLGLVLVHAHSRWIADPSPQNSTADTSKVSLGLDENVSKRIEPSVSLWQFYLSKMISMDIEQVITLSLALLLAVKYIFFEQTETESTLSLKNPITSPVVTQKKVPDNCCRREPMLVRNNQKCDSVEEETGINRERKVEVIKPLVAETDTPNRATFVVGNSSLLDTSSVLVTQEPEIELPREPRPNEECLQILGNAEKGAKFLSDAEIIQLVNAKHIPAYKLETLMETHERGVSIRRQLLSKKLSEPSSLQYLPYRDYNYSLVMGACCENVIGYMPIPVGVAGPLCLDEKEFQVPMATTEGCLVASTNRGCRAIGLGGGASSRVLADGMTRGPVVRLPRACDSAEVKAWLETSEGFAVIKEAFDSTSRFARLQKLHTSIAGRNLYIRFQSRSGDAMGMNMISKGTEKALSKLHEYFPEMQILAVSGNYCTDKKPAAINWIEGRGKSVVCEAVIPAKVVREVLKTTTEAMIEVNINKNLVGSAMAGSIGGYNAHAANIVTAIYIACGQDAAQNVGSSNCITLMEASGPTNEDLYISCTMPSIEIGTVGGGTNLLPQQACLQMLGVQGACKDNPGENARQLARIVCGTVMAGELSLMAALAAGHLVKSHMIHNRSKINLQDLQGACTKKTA
Assay: HMG-CoA reductase (HMGCR) degradation in HepG2 cells by western blotting
Format: cell-based
Conditions: treated for 18 hours, ratio of HMG-CoA reductase to GAPDH, read-out: DC50
In short: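 HepG2 cells (passage P105–P110) treated 18 hours with compounds in 10-point three-fold dilutions from 3 μM. RIPA lysates (15 μg protein, BCA-quantified) run on SDS-PAGE and immunoblotted for HMGCR (1:500) with GAPDH (1:20000) as loading control, primary antibodies 16 hours at 4° C.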

SMILES | DC50 [nM]
C[C@H]1C=C2C=C[C@H](C)[C@H](CC[C@@H]3C[C@@H](O[Si](C)(C)C(C)(C)C)CC(=O)O3)[C@H]2[C@@H](OC(=O)N(C)CCOCCOCCNc2cccc3c2C(=O)N(C2CCC(=O)NC2=O)C3=O)C1 (stereo partly drawn) [Compound 82, (1S,3R,7S,8S,8aR)-8-(2-((2R,4R)-4-((tert-butyldimethylsilyl)oxy)-6-oxotetrahydro-2H-pyran-2-yl)ethyl)-3,7-dimethyl-1,2,3,7,8,8a-hexahydronaphthalen-1-yl (2-(2-(2-((2-(2,6-dioxopiperidin-3-yl)-1,3-dioxoisoindolin-4-yl)amino)ethoxy)ethoxy)ethyl)(methyl)carbamate] | < 50
C[C@H]1C=C2C=C[C@H](C)[C@H](CC[C@@H]3C[C@@H](O)CC(=O)O3)[C@H]2[C@@H](OC(=O)N(C)CCOCCOCCNc2cccc3c2C(=O)N(C2CCC(=O)NC2=O)C3=O)C1 (stereo partly drawn) [Compound 83, (1S,3R,7S,8S,8aR)-8-(2-((2R,4R)-4-hydroxy-6-oxotetrahydro-2H-pyran-2-yl)ethyl)-3,7-dimethyl-1,2,3,7,8,8a-hexahydronaphthalen-1-yl (2-(2-(2-((2-(2,6-dioxopiperidin-3-yl)-1,3-dioxoisoindolin-4-yl)amino)ethoxy)ethoxy)ethyl)(methyl)carbamate] | < 50
C[C@H]1C=C2C=C[C@H](C)[C@H](CC[C@@H]3C[C@@H](O[Si](C)(C)C(C)(C)C)CC(=O)O3)[C@H]2[C@@H](OC(=O)N2CCC(CCOCCNc3cccc4c3C(=O)N(C3CCC(=O)NC3=O)C4=O)CC2)C1 (stereo partly drawn) [Compound 84, (1S,3R,7S,8S,8aR)-8-(2-((2R,4R)-4-((tert-butyldimethylsilyl)oxy)-6-oxotetrahydro-2H-pyran-2-yl)ethyl)-3,7-dimethyl-1,2,3,7,8,8a-hexahydronaphthalen-1-yl4-(2-(2-((2-(2,6-dioxopiperidin-3-yl)-1,3-dioxoisoindolin-4-yl)amino)ethoxy)ethyl)piperidine-1-carboxylate] | < 50
C[C@H]1C=C2C=C[C@H](C)[C@H](CC[C@@H]3C[C@@H](O)CC(=O)O3)[C@H]2[C@@H](OC(=O)N2CCC(CCOCCNc3cccc4c3C(=O)N(C3CCC(=O)NC3=O)C4=O)CC2)C1 (stereo partly drawn) [Compound 85, (1S,3R,7S,8S,8aR)-8-(2-((2R,4R)-4-hydroxy-6-oxotetrahydro-2H-pyran-2-yl)ethyl)-3,7-dimethyl-1,2,3,7,8,8a-hexahydronaphthalen-1-yl4-(2-(2-((2-(2,6-dioxopiperidin-3-yl)-1,3-dioxoisoindolin-4-yl)amino)ethoxy)ethyl)piperidine-1-carboxylate] | < 50
C[C@H]1C=C2C=C[C@H](C)[C@H](CC[C@@H]3C[C@@H](O[Si](C)(C)C(C)(C)C)CC(=O)O3)[C@H]2[C@@H](OC(=O)NCCOCCNc2cccc3c2C(=O)N(C2CCC(=O)NC2=O)C3=O)C1 (stereo partly drawn) [Compound 86, (1S,3R,7S,8S,8aR)-8-(2-((2R,4R)-4-((tert-butyldimethylsilyl)oxy)-6-oxotetrahydro-2H-pyran-2-yl)ethyl)-3,7-dimethyl-1,2,3,7,8,8a-hexahydronaphthalen-1-yl (2-(2-((2-(2,6-dioxopiperidin-3-yl)-1,3-dioxoisoindolin-4-yl)amino)ethoxy)ethyl)carbamate] | < 50
C[C@H]1C=C2C=C[C@H](C)[C@H](CC[C@@H]3C[C@@H](O)CC(=O)O3)[C@H]2[C@@H](OC(=O)NCCOCCNc2cccc3c2C(=O)N(C2CCC(=O)NC2=O)C3=O)C1 (stereo partly drawn) [Compound 87, (1S,3R,7S,8S,8aR)-8-(2-((2R,4R)-4-hydroxy-6-oxotetrahydro-2H-pyran-2-yl)ethyl)-3,7-dimethyl-1,2,3,7,8,8a-hexahydronaphthalen-1-yl (2-(2-((2-(2,6-dioxopiperidin-3-yl)-1,3-dioxoisoindolin-4-yl)amino)ethoxy)ethyl)carbamate] | < 50
C[C@H]1C=C2C=C[C@H](C)[C@H](CC[C@@H]3C[C@@H](O[Si](C)(C)C(C)(C)C)CC(=O)O3)[C@H]2[C@@H](OC(=O)NCCCCOCCCCNc2cccc3c2C(=O)N(C2CCC(=O)NC2=O)C3=O)C1 (stereo partly drawn) [Compound 88, (1S,3R,7S,8S,8aR)-8-(2-((2R,4R)-4-((tert-butyldimethylsilyl)oxy)-6-oxotetrahydro-2H-pyran-2-yl)ethyl)-3,7-dimethyl-1,2,3,7,8,8a-hexahydronaphthalen-1-yl (4-(4-((2-(2,6-dioxopiperidin-3-yl)-1,3-dioxoisoindolin-4-yl)amino)butoxy)butyl)carbamate] | < 50
C[C@H]1C=C2C=C[C@H](C)[C@H](CC[C@@H]3C[C@@H](O)CC(=O)O3)[C@H]2[C@@H](OC(=O)NCCCCOCCCCNc2cccc3c2C(=O)N(C2CCC(=O)NC2=O)C3=O)C1 (stereo partly drawn) [Compound 89, (1S,3R,7S,8S,8aR)-8-(2-((2R,4R)-4-hydroxy-6-oxotetrahydro-2H-pyran-2-yl)ethyl)-3,7-dimethyl-1,2,3,7,8,8a-hexahydronaphthalen-1-yl (4-(4-((2-(2,6-dioxopiperidin-3-yl)-1,3-dioxoisoindolin-4-yl)amino)butoxy)butyl)carbamate] | < 50
C[C@H]1C=C2C=C[C@H](C)[C@H](CC[C@@H]3C[C@@H](O[Si](C)(C)C(C)(C)C)CC(=O)O3)[C@H]2[C@@H](OC(=O)NCCOCCCOCCNc2cccc3c2C(=O)N(C2CCC(=O)NC2=O)C3=O)C1 (stereo partly drawn) [Compound 90, (1S,3R,7S,8S,8aR)-8-(2-((2R,4R)-4-((tert-butyldimethylsilyl)oxy)-6-oxotetrahydro-2H-pyran-2-yl)ethyl)-3,7-dimethyl-1,2,3,7,8,8a-hexahydronaphthalen-1-yl (2-(3-(2-((2-(2,6-dioxopiperidin-3-yl)-1,3-dioxoisoindolin-4-yl)amino)ethoxy)propoxy)ethyl)carbamate] | < 50
C[C@H]1C=C2C=C[C@H](C)[C@H](CC[C@@H]3C[C@@H](O)CC(=O)O3)[C@H]2[C@@H](OC(=O)NCCOCCCOCCNc2cccc3c2C(=O)N(C2CCC(=O)NC2=O)C3=O)C1 (stereo partly drawn) [Compound 91, (1S,3R,7S,8S,8aR)-8-(2-((2R,4R)-4-hydroxy-6-oxotetrahydro-2H-pyran-2-yl)ethyl)-3,7-dimethyl-1,2,3,7,8,8a-hexahydronaphthalen-1-yl (2-(3-(2-((2-(2,6-dioxopiperidin-3-yl)-1,3-dioxoisoindolin-4-yl)amino)ethoxy)propoxy)ethyl)carbamate] | < 50
C[C@H]1C=C2C=C[C@H](C)[C@H](CC[C@@H]3C[C@@H](O[Si](C)(C)C(C)(C)C)CC(=O)O3)[C@H]2[C@@H](OC(=O)NCCOCCOCCCNc2cccc3c2C(=O)N(C2CCC(=O)NC2=O)C3=O)C1 (stereo partly drawn) [Compound 92, (1S,3R,7S,8S,8aR)-8-(2-((2R,4R)-4-((tert-butyldimethylsilyl)oxy)-6-oxotetrahydro-2H-pyran-2-yl)ethyl)-3,7-dimethyl-1,2,3,7,8,8a-hexahydronaphthalen-1-yl (2-(2-(3-((2-(2,6-dioxopiperidin-3-yl)-1,3-dioxoisoindolin-4-yl)amino)propoxy)ethoxy)ethyl)carbamate] | < 50
C[C@H]1C=C2C=C[C@H](C)[C@H](CC[C@@H]3C[C@@H](O)CC(=O)O3)[C@H]2[C@@H](OC(=O)NCCOCCOCCCNc2cccc3c2C(=O)N(C2CCC(=O)NC2=O)C3=O)C1 (stereo partly drawn) [Compound 93, (1S,3R,7S,8S,8aR)-8-(2-((2R,4R)-4-hydroxy-6-oxotetrahydro-2H-pyran-2-yl)ethyl)-3,7-dimethyl-1,2,3,7,8,8a-hexahydronaphthalen-1-yl (2-(2-(3-((2-(2,6-dioxopiperidin-3-yl)-1,3-dioxoisoindolin-4-yl)amino)propoxy)ethoxy)ethyl)carbamate] | < 50
C[C@H]1C=C2C=C[C@H](C)[C@H](CC[C@@H]3C[C@@H](O[Si](C)(C)C(C)(C)C)CC(=O)O3)[C@H]2[C@@H](OC(=O)NCCCOCCCOCCCNc2cccc3c2C(=O)N(C2CCC(=O)NC2=O)C3=O)C1 (stereo partly drawn) [Compound 94, (1S,3R,7S,8S,8aR)-8-(2-((2R,4R)-4-((tert-butyldimethylsilyl)oxy)-6-oxotetrahydro-2H-pyran-2-yl)ethyl)-3,7-dimethyl-1,2,3,7,8,8a-hexahydronaphthalen-1-yl (3-(3-(3-((2-(2,6-dioxopiperidin-3-yl)-1,3-dioxoisoindolin-4-yl)amino)propoxy)propoxy)propyl)carbamate] | < 50
